Source: patent publication US20230114728A1 (Venatorx Pharmaceuticals, Inc., priority 2019, published 2023)
Values after ≈ are worked out from the molar mass of the structure shown.

Assays:
Format in all cases: cell-based
N. gonorrhoeae WHO L = experiment: Liquid broth MIC in Fastidious broth; details: Neisseria gonorrhoeae; N. gonorrhoeae strain WHO L; Fastidious broth; read-out: Minimum Inhibitory Concentration, N. gonorrhoeae WHO L
Summary of the method: (§1)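 Colonies were swabbed from chocolate agar after 24 h growth and standardised by optical density at 600 nm. Compounds were serially diluted twofold in Fastidious broth, and bacteria added to give 5×10^5 CFU/mL. After about 24 h at 36 °C in 5% CO2, the lowest concentration allowing under 10% growth was taken as MIC.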

N. gonorrhoeae WHO Q = experiment: Liquid broth MIC in Fastidious broth; details: Neisseria gonorrhoeae, read-out: Minimum Inhibitory Concentration, N. gonorrhoeae WHO Q
Summary of the method: (§2)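 Broth microdilution against gonococcal strains expressing mosaic PBP2, starting inoculum 5×10^5 CFU/mL in Fastidious broth. Incubation runs ~24 h at 36 °C under 5% CO2, with MIC scored visually at <10% of full growth.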

N. gonorrhoeae WHO Z = experiment: Liquid broth MIC in Fastidious broth; details: Neisseria gonorrhoeae, read-out: Minimum Inhibitory Concentration, N. gonorrhoeae WHO Z
Summary of the method: as §2

N. gonorrhoeae FA1090 = experiment: Liquid broth MIC in Fastidious broth; details: Neisseria gonorrhoeae; N. gonorrhoeae strain FA1090; Fastidious broth; read-out: Minimum Inhibitory Concentration, N. gonorrhoeae FA1090
Summary of the method: as §1

N. gonorrhoeae WHO G = experiment: Liquid broth MIC in Fastidious broth; details: Neisseria gonorrhoeae; N. gonorrhoeae strain WHO G; Fastidious broth; read-out: Minimum Inhibitory Concentration, N. gonorrhoeae WHO G
Summary of the method: as §1

[1] = test system: N. gonorrhoeae ATCC 49226; experiment: Liquid broth MIC in Fastidious broth; details: Neisseria gonorrhoeae, ATCC49226; N. gonorrhoeae strain ATCC 49226; Fastidious broth; read-out: Minimum Inhibitory Concentration, N. gonorrhoeae ATCC 49226
Summary of the method: as §1

N. gonorrhoeae H041 = experiment: Liquid broth MIC in Fastidious broth; details: Neisseria gonorrhoeae, H041, read-out: Minimum Inhibitory Concentration, N. gonorrhoeae H041
Summary of the method: as §2

N. gonorrhoeae WHO K = experiment: Liquid broth MIC in Fastidious broth; details: Neisseria gonorrhoeae, read-out: Minimum Inhibitory Concentration, N. gonorrhoeae WHO K
Summary of the method: as §2

[2] = test system: K. pneumoniae SI-117 producing VIM-1; experiment: Broth microdilution MIC in CAMHB; details: Klebsiella pneumoniae, read-out: Minimum Inhibitory Concentration, K. pneumoniae SI-117
Summary of the method: (§3)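 Per CLSI broth microdilution, colonies were grown 3-5 h at 37° C in cation-adjusted Mueller Hinton broth, then diluted to a starting inoculum of 2-8×10^5 CFU/mL against 2-fold serial compound dilutions. Plates were incubated 16-20 h at 37° C, and MIC was read visually as the lowest concentration with no growth.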

[3] = test system: K. pneumoniae 848844 producing SHV-11 and KPC-2; experiment: Broth microdilution MIC in CAMHB; details: Klebsiella pneumoniae, read-out: Minimum Inhibitory Concentration, K. pneumoniae 848844
Summary of the method: as §3

[4] = test system: P. aeruginosa (ΔmexAB-oprM); experiment: Broth microdilution MIC in CAMHB; details: Pseudomonas aeruginosa, read-out: Minimum Inhibitory Concentration, P. aeruginosa ΔmexAB-OprM
Summary of the method: as §3

E. coli AG100A = experiment: Broth microdilution MIC in CAMHB; details: Escherichia coli, read-out: Minimum Inhibitory Concentration, E. coli AG100A
Summary of the method: as §3

E. coli D22 = experiment: Broth microdilution MIC in CAMHB; details: Escherichia coli; E. coli D22 (hyper-permeable); MHB; read-out: Minimum Inhibitory Concentration, E. coli D22
Summary of the method: as §3

For `NCCN1CCN(C(=O)N[C@@H](C(=O)N[C@H]2Cc3cccc(C(=O)O)c3OB2O)c2ccc(O)c(Cl)c2F)C(=O)C1=O` (single isomer, unassigned) [Example 186], the MIC (N. gonorrhoeae WHO L) was > 64 µg/mL, the MIC (N. gonorrhoeae WHO Q) was > 64 µg/mL and the MIC (N. gonorrhoeae WHO Z) was > 64 µg/mL. It also gave an MIC (N. gonorrhoeae FA1090) of 0.25 to 0.5 µg/mL (≈ 0.422 to 0.845 µM), an MIC (N. gonorrhoeae WHO G) of 4 to 8 µg/mL (≈ 6.76 to 13.5 µM) and an MIC [1] of 16 to 32 µg/mL (≈ 27 to 54.1 µM). For the same molecule, the MIC (N. gonorrhoeae H041) was > 64 µg/mL, the MIC (N. gonorrhoeae WHO K) was > 64 µg/mL and the MIC [2] was 32 to 64 µg/mL (≈ 54.1 to 108 µM). The MIC [3] was 32 to 64 µg/mL (≈ 54.1 to 108 µM), the MIC [4] was 8 to 16 µg/mL (≈ 13.5 to 27 µM) and the MIC (E. coli AG100A) was 2 to 4 µg/mL (≈ 3.38 to 6.76 µM). The MIC (E. coli D22) was 2 to 4 µg/mL (≈ 3.38 to 6.76 µM).
In the case of `NCCCN1CCN(C(=O)NC(C(=O)N[C@H]2Cc3cccc(C(=O)O)c3OB2O)c2c(F)cc(O)cc2F)C(=O)C1=O` (stereo partly drawn) [Example 183, (3R)-3-(2-(4-(3-aminopropyl)-2,3-dioxopiperazine-1-carboxamido)-2-(2,6-difluoro-4-hydroxyphenyl)acetamido)-2-hydroxy-3,4-dihydro-2H-benzo[e][1,2]oxaborinine-8-carboxylic acid], the MIC (N. gonorrhoeae WHO L) is reported as > 64 µg/mL, the MIC (N. gonorrhoeae WHO Q) is reported as > 64 µg/mL and the MIC (N. gonorrhoeae WHO Z) is reported as > 64 µg/mL. It also gave an MIC (N. gonorrhoeae FA1090) of 1 to 2 µg/mL (≈ 1.7 to 3.39 µM), an MIC (N. gonorrhoeae WHO G) of 16 to 32 µg/mL (≈ 27.2 to 54.3 µM) and an MIC [1] of 16 to 32 µg/mL (≈ 27.2 to 54.3 µM). The MIC (N. gonorrhoeae H041) was > 64 µg/mL, the MIC (N. gonorrhoeae WHO K) was > 64 µg/mL and the MIC [2] was 32 to 64 µg/mL (≈ 54.3 to 109 µM). The MIC [3] was 32 to 64 µg/mL (≈ 54.3 to 109 µM), the MIC [4] was 8 to 16 µg/mL (≈ 13.6 to 27.2 µM) and the MIC (E. coli AG100A) was 2 to 4 µg/mL (≈ 3.39 to 6.79 µM). The MIC (E. coli D22) was 2 to 4 µg/mL (≈ 3.39 to 6.79 µM).
`O=C(O)c1cccc2c1OB(O)[C@@H](NC(=O)C(NC(=O)N1CCN(CC3CNC3)C(=O)C1=O)c1c(F)cc(O)cc1F)C2` (stereo partly drawn) [Example 193, (3R)-3-(2-(4-(azetidin-3-ylmethyl)-2,3-dioxopiperazine-1-carboxamido)-2-(2,6-difluoro-4-hydroxyphenyl)acetamido)-2-hydroxy-3,4-dihydro-2H-benzo[e][1,2]oxaborinine-8-carboxylic acid] was tested, and the MIC (N. gonorrhoeae WHO L) was > 64 µg/mL, the MIC (N. gonorrhoeae WHO Q) was > 64 µg/mL and the MIC (N. gonorrhoeae WHO Z) was > 64 µg/mL. For the same molecule, the MIC (N. gonorrhoeae FA1090) was 1 to 2 µg/mL (≈ 1.66 to 3.33 µM), the MIC (N. gonorrhoeae WHO G) was 16 to 32 µg/mL (≈ 26.6 to 53.2 µM) and the MIC [1] was > 64 µg/mL. The MIC (N. gonorrhoeae H041) was > 64 µg/mL, the MIC (N. gonorrhoeae WHO K) was > 64 µg/mL and the MIC [2] was 32 to 64 µg/mL (≈ 53.2 to 106 µM). The MIC [3] was 32 to 64 µg/mL (≈ 53.2 to 106 µM), the MIC [4] was 8 to 16 µg/mL (≈ 13.3 to 26.6 µM) and the MIC (E. coli AG100A) was 0.5 to 1 µg/mL (≈ 0.831 to 1.66 µM). For the same molecule, the MIC (E. coli D22) was 2 to 4 µg/mL (≈ 3.33 to 6.65 µM).
For `NCCN1CCN(C(=O)N[C@H](C(=O)N[C@H]2Cc3cccc(C(=O)O)c3OB2O)c2ccc(O)c([N+](=O)[O-])c2)C(=O)C1=O` (single isomer, unassigned) [Example 200], the MIC (N. gonorrhoeae WHO L) was > 64 µg/mL, the MIC (N. gonorrhoeae WHO Q) was > 64 µg/mL and the MIC (N. gonorrhoeae WHO Z) was > 64 µg/mL. For the same molecule, the MIC (N. gonorrhoeae FA1090) was 4 to 8 µg/mL (≈ 6.85 to 13.7 µM), the MIC (N. gonorrhoeae WHO G) was > 64 µg/mL and the MIC [1] was > 64 µg/mL. The MIC (N. gonorrhoeae H041) was > 64 µg/mL, the MIC (N. gonorrhoeae WHO K) was > 64 µg/mL and the MIC [2] was > 128 µg/mL. The MIC [3] was > 128 µg/mL, the MIC [4] was > 128 µg/mL and the MIC (E. coli AG100A) was 32 to 64 µg/mL (≈ 54.8 to 110 µM). For the same molecule, the MIC (E. coli D22) was > 128 µg/mL.
